Reference: patent publication US20220054445A1, “THERAPEUTIC METHODS AND COMPOSITIONS FOR TREATING CANCER USING 6,8-BIS-BENZYLTHIO-OCTANOIC ACID AND AN AUTOPHAGY INHIBITOR” (Rafael Pharmaceuticals, Inc., priority 2018, published 2022)

Legend:
[1] = system: BxPC-3 pancreatic cancer xenografts; assay: Human pancreatic cancer xenograft, oral dosing; type: in vivo, CD-1 nude mice; conditions: oral dose of 100 mg/week for 4 weeks
Protocol: An acclimation period of 7 days was allowed between the arrival of the animal at the study site before tumor inoculation and experimentation. Mice were inoculated subcutaneously (SC) in the right flank with 2×10^6 human H460 NSCLC or BxPC3 pancreatic cancer cells that were suspended in 0.1 mL of Dulbeco's Phosphate Buffered Salt (PBS) solution using a 1 cc syringe with a 27-5/8 gauge needle. Tumor dimensions (length and width) were measured daily before, during and after treatment (using Vernier calipers) and the tumor volume was calculated using the prolate ellipsoid formula: (length×width^2)/2. Treatment with test or control articles began 8 days post tumor cell implantation when the tumor was approximately 300 mm^3.
A similar study was conducted in CD-1 nude mice (n=9) inoculated with 2×10^6 BxPC-3 cells. The study was initiated when tumors reached an average size of 150 mm^3 (day 0) and CPI-613 was administered at an oral dose of 100 mg/week for 4 weeks. A comparator arm (n=9) was conducted with IP treatment at a weekly dose of 25 mg/kg.

[2] = system: human H460 NSCLC xenografts; assay: Human non-small cell lung cancer xenograft, oral dosing; type: in vivo, CD1-Nu/Nu female mice; conditions: oral 100 mg/kg on day 8, 15, 22, 29 post implantation
Protocol: Human H460 NSCLC cells were obtained from American Type Cell Culture (ATCC) (catalog no. HTB-177, Manassas, Va.). These cells tested negative for viral contamination using the Mouse Antibody Production (MAP) test, performed by Charles River Labs Molecular Division, upon the receipt of the tumor cells from ATCC. The tumor cells were maintained at 37° C. in a humidified 5% CO2 atmosphere in T225 tissue culture flasks containing 50 mL of Roswell Park Memorial Institute (RPMI)-1640 solution with 10% Fetal Bovine Serum (FBS) and 2 mM L-glutamine. Cells were split at a ratio of 1:10 every 2-3 days by trypsinization and resuspended in fresh medium in a new flask. Cells were harvested for experiments in the same way at 70-90% confluency.
CD1-Nu/Nu female mice, ˜4-6 weeks old were obtained from Charles River Laboratories. Mice were housed 5 to a cage in a micro-isolator room in the Department of Animal Laboratory Research of New York State University (SUNY) at Stony Brook. Light-dark cycles were 12 h each daily, with light from 7 a.m. to 7 p.m. […]
An acclimation period of 7 days was allowed between the arrival of the animal at the study site before tumor inoculation and experimentation. […] Tumor dimensions (length and width) were measured daily before, during and after treatment (using Vernier calipers) and the tumor volume was calculated using the prolate ellipsoid formula: (length×width^2)/2. […]

[3] = Plasma pharmacokinetics and oral bioavailability of formulations; set-up: species or system BALB/c nude mice; conditions: mouse, in vivo
Protocol: Six groups of 16 BALB/c nude mice (8 males and 8 females) per group were administered 6,8-bis-benzylthio-octanoic acid in six different ways: (1) 5 μL/g IV injection (tail vein) of the triethanolamine/dextrose aqueous solution of Example 18 (25 mg/kg; 5 mL/kg; Ex. 18A); (2) 5 μL/g IP injection of the triethanolamine/dextrose aqueous solution of Example 18 (25 mg/kg; 5 mL/kg; 18A); (3) 5 μL/g oral administration of the Eudragit L100 SDD suspension of Example 18 (100 mg/kg; 5 mL/kg; 18B); (4) 5 μL/g oral administration of the HPMCAS-M SDD suspension of Example 18 (100 mg/kg; 5 mL/kg; 18C); (5) 5 μL/g oral administration of the 20 mg/mL 6,8-bis-benzylthio-octanoic acid suspension of Example 18 (100 mg/kg; 5 mL/kg; 18D); or (6) 10 μL/g oral administration of the 10 mg/mL SOLUTOL solution of Example 18 (100 mg/kg; 10 mL/kg; 18E). In each experiment, about 80 μL of blood was collected from one subgroup of 4 male and 4 female mice at 0.083, 1, 4, and 24 hours after dosing, and from the other subgroup of 4 male and 4 female mice at 0.5, 2, and 8 hours. Plasma from the collected blood samples was analyzed by LC-MS/MS for the presence of 6,8-bis-benzylthio-octanoic acid.

[4] = Pardee et al., Clin Cancer Res. 2014; cited from earlier work
K562 and MFL2 AML cells = assay: LC3-II blot for induction of autophagy in AML cells; type: cell-based; conditions: CPI-613 200 μM, 4 hours
From the text: Complete media (“Full”) and Hank's Balanced Salt Solution medium (HBSS) were used as negative and positive controls of autophagy, respectively.

[5] = Animal studies of IV administration (toxicity); type: in vivo
Protocol: CPI-613 must be administered IV, via an IV catheter that is free flowing and free of air in the dead space of the IV catheter, to minimize vascular irritation, inflammation and acute toxicity of CPI-613. […] To avoid local reactions at and around the site of administration, CPI-613 must be administered via a central venous catheter.
CPI-613 must not be administered as a bolus, but by infusion, at a rate of ˜0.5 mL/min, via a central venous catheter with D5W running at a rate of about 125-150 mL/hr. This is to minimize potential acute toxicity of CPI-613, according to animal studies.

HS-MM cells [6] = assay: DALGreen autophagy detection in HS-MM cells; type: cell-based; conditions: 16 hours
Protocol: HS-MM cells (Sonobe H. et al., J. Pathol., 1993, 169, 317-322; Sonobe H. et al., J. Pathol., 1999, 187, 594-597) were cultured with Dulbecco's modified Eagle's medium (DMEM; Gibco Life Technologies, Grand Island, N.Y., USA) containing 10% heat-inactivated fetal bovine serum (FBS). Cells were incubated with […] autophagy detection agent (Dojindo Co., Kumamoto, Japan) according to the manufacturer's protocol (https://www.dojindo.com/TechnicalManual/Manual_[…].pdf). The […]-treated cells were then incubated with vehicle (DMEM+10% heat-inactivated FBS containing the same amount of DMSO and distilled water present in the corresponding CPI-613 and chloroquine experiments), CPI-613 (added […] of a 5 mg/mL solution of CPI-613 in DMSO per mL of medium to provide a 1 μg/mL concentration of CPI-613 in the medium), or the combination of CPI-613 (1 μg/mL as above) and chloroquine (added 2 μL of a 5 mg/mL solution of chloroquine in distilled water per mL of medium to provide a 10 μg/mL concentration of chloroquine in the medium) at 37° C. under 5% CO2 for 16 hours, and then visualized under a confocal fluorescence microscope (Leica TCS SP8; Leica Corporation, Germany) and analyzed with a Guava Easy-Cyte cell analyzer ([…], Calif., USA).

HS-MM cells [7] = assay: Annexin V / propidium iodide cell death staining in HS-MM cells; type: cell-based; conditions: necrostatin-1 5, 10 or 50 μM with CPI-613 1 μg/mL + chloroquine 10 μg/mL
Protocol: HS-MM cells (Sonobe H. et al., J. Pathol., 1993, 169, 317-322; Sonobe H. et al., J. Pathol., 1999, 187, 594-597) were cultured with Dulbecco's modified Eagle's medium (DMEM; Gibco Life Technologies, Grand Island, N.Y., USA) containing 10% heat-inactivated fetal bovine serum (FBS). Cells were incubated with vehicle (DMEM+10% heat-inactivated FBS containing the same amount of DMSO and distilled water present in the corresponding CPI-613, chloroquine, and necrostatin-1 experiments), chloroquine (10 μg/mL), CPI-613 (1 μg/mL or 10 μg/mL), the combination of chloroquine (10 μg/mL) and CPI-613 (100 ng/mL, 1 μg/mL, or 10 μg/mL), or the combination of chloroquine (10 μg/mL) and CPI-613 (1 μg/mL) in the presence of necrostatin-1 (5 μM, 10 μM, or 50 μM), and then double stained with a fluorescein isothiocyante (FITC)-conjugated Annexin V and propidium iodide (PI) (PromoCell GMbH, Heidelberg, Germany) followed by analysis with a confocal fluorescence microscope and cell analyzer. The chloroquine and CPI-613 were added to the media from 5 mg/mL stock solutions in distilled water or DMSO, respectively, as in Example 11. The necrostatin-1 was added to the media from a 5 mg/mL stock solution in DMSO.

O=C(O)CCCCC(CCSCc1ccccc1)SCc1ccccc1 (stereo not shown) [6,8-bis-benzylthio-octanoic acid]
tumor growth effect [1]: especially pronounced
tumor growth versus 5% dextrose or untreated [2]: grew much more slowly
oral bioavailability (conclusion in words) [3]: orally bioavailable
half-life after IV dosing [4]: 1 to 2 h
induction of autophagy (LC3-II blot) (K562 and MFL2 AML cells): induces autophagy in AML cells
acute toxicity with extra air in dead space of IV catheter ([5]; accidental co-administration of air during IV administration, animal studies): potential to induce acute toxicity
local reaction on leakage into the perivascular space ([5]; in vivo, iv): can induce significant local inflammation
induction of autophagy (DALGreen fluorescence) (HS-MM cells [6]; CPI-613 1 μg/mL): induces autophagy in HS-MM cells

CCN(CC)CCCC(C)Nc1ccnc2cc(Cl)ccc12 (stereo not shown) [chloroquine, reference compound]
blocking of CPI-613 autophagy induction (HS-MM cells [6]; chloroquine 10 μg/mL with CPI-613 1 μg/mL): autophagy induction can be blocked

CN1C(=O)C(Cc2c[nH]c3ccccc23)NC1=S (stereo not shown) [necrostatin-1]
effect on cell death induced by CPI-613 plus chloroquine (HS-MM cells [7]): did not affect cell death
